The values below come from US20220023269A1, “Methods Of Treating Diabetes In Severe Insulin-Resistant Diabetic Subjects” (Balticgruppen Bio AB, priority 2018, published 2022).

The test system of assay [1] is CBA mice on HFD. The experiment in a line: Indirect calorimetry measurements. The assay is classed as in vivo. Conditions: 11 w. The method, then: VO2 and VCO2 rates were measured during 3 days by indirect calorimetry in TSE PhenoMaster Calorimetry metabolic cages (TSE Systems GmbH). The respiratory exchange ratio (RER) was calculated as a ratio of VCO2 produced/VO2 consumed. […] Energy expenditure (EE) was calculated as the product of the calorific value (CV) of oxygen [=3.815+(1.232×RER)] and the volume of O2 consumed, i.e. [EE=CV×VO2 (kcal/h)] and related to lean weight.

The test system of assay [2] is aged, lean B6 mice. The experiment in a line: Treadmill endurance test. It is filed as in vivo. As to conditions: 20 mg/kg/day gavage, 30 days. The procedure: One week prior to the test mice went through a familiarization session of 5 minutes on the treadmill. Running protocol as follows: 15 minutes at 18.8 m/minute, 5 minutes at 24.4 m/minute and 27.1 m/minute until exhaustion. At exhaustion, blood lactate levels were measured using a lactate test meter (Arkray).

The subject of assay [3] is patients suffering from type-2 diabetes. The assay is described as follows: Renal hemodynamics / glomerular perfusion in humans. The assay is classed as in vivo, human.
For assay [4], the system named is CBA mice on HFD. The experiment in a line: In vivo lipogenesis. As to conditions: 2 mg/g in HFD, 5 weeks. The method, then:
After 90 minutes 0.2-0.3 g liver were isolated and homogenised in 3 ml PBS before addition of 6 ml chloroform/methanol (2:1). Samples were mixed until phase separation no longer occurred and left at RT 30 minutes before centrifuged, 4,500 rpm, 5 minutes. The water phase was removed and 3 ml chloroform transferred to a scintillation vial and evaporated to dryness by a stream of nitrogen while standing in a 40° C. water bath. The residue was dissolved in 3 ml optiphase hisafe 3 (Perkin Elmer #1200.437) and ^3H determined for 1 minute in a Wallac 1414 counter. ^3H values were normalised to liver weight.

Assay [5] has as its target T1, PP2Ca (Homo sapiens, UniProt P35813).
T1 construct: purchased Abcam ab51205
The experiment in a line: PP2C phosphatase activity assay. As to conditions: 5, 10 or 20 μM. The assay is classed as biochemical. The procedure: 3 ng/μl PP2Ca (Abcam ab51205) and 5, 10 or 20 μM test material in buffer (50 mM Tris-HCL pH 7.5, 0.1 mM EDTA, 0.5 mM DTT, 5 mM MgCl2) was used in the Sensolyte FDP protein phosphatase assay kit (Anaspec #71100) according to the manufacturer's instructions to measure the activity of PP2Ca. The fluorescence intensity was measured in a Bio Tek Synergy H4 multi-mode microplate reader.

In assay [6] the test system is AMPK in human islets. The assay is described as follows: AMPK activation in human islets. It is filed as cell-based. As to conditions: 1.0, 2.5, 5.0, 10 μM, 4 hours. The procedure:
All cell lines were lysed in 0.1 M Tris-HCl, pH 6.8, 2% SDS, 10 mM sodium fluoride (SIGMA #S7920), 10 mM β-glycerophosphate (SIGMA #G6376), and 1 mM sodium vanadate (SIGMA #72060) and supernatant collected after 1 minute at 14,000 rpm. Islets (human and mouse) were lysed in 0.1 M Tris-HCl, pH 6.8, 2% SDS, protease inhibitor (Roche #04 693 124 001) and phosphatase inhibitor (Roche #04 906 837 001). Right calf muscle, heart, iWAT, and interscapular BAT was crushed in a pestle using liquid nitrogen and homogenised in ice cold RIPA buffer (150 mM sodium chloride (SIGMA #S7653), 1.0% NP40 (USB), 0.5% sodium deoxycholate (SIGMA #D6750), 0.1% SDS, 50 mM Tris pH 8.0, 20 mM sodium pyrophosphate (SIGMA #71515), 10 mM sodium fluoride, 10 mM β-glycerolphosphate, 1 mM sodium vanadate and protease inhibitor cocktail (Roche #04693124001), 1 tablet/10 ml lysis buffer). The supernatant was collected after 2 min at 14,000 rpm. This procedure was repeated until all fat was eliminated and the supernatant was clear, at 4° C. Samples were analysed on 4-15% polyacrylamide gels. Values were normalised toward AMPKα, β-Actin, GAPDH or the respective non-phosphorylated counterpart.
Table 3 contains origin of cell lines, growth conditions and settings for activation of AMPK via the test material. […]

Where [7] appears, read: 0.8 mg/g in HFD, light and dark periods.

T1 sequence (P35813 whole entry): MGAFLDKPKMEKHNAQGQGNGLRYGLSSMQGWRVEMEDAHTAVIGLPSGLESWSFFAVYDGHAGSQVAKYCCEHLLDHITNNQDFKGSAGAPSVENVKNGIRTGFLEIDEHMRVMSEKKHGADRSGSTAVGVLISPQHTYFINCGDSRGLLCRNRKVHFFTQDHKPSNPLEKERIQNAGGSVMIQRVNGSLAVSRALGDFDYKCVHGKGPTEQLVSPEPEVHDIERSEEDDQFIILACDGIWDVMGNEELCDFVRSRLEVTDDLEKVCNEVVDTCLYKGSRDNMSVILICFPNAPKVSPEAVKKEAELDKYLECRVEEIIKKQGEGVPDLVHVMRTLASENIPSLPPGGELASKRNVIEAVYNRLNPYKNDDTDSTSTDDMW

On to `O=C(Nc1nc(=O)n(Cc2ccc(Cl)cc2)s1)c1ccc(Cl)cc1` [test material, 4-chloro-N-[2-[(4-chlorophenyl)methyl]-3-oxo-1,2,4-thiadiazol-5-yl]benzamide], for which, in assay [1] (setting [7]), the “energy expenditure (EE)” value is listed as “significantly increased” and the “oxygen consumption (VO2)” value is recorded as “significantly increased”. The “respiratory exchange ratio (RER)” value in assay [1] (0.8 mg/g, day 2 light period, all 3 days dark period) was “significantly decreased”. For the same compound, the “blood lactate levels after endurance test” value in assay [2] was “significantly reducing the increase in blood lactate levels”. In assay [2] (vs vehicle), the “endurance capacity (running distance to exhaustion)” value is reported as “significantly improved endurance capacity”. For the same compound, the “microvascular perfusion in glomeruli” value in assay [3] (humans) is listed as “positive effect on microvascular perfusion in glomeruli”. Besides, the renal hemodynamics result in assay [3] (patients suffering from type-2 diabetes) is recorded as “positive effects on renal hemodynamics”. In addition, in assay [4], the “reduction of hepatic DNL” value was around 45%. Moreover, the “activity of PP2C” value in assay [5] is “without inhibiting the activity of PP2C”. Also, in assay [6], the pAMPKα entry is “directly increased pAMPKα”.
